Measurements as given in patent publication US5399543A, “3-[4-(phenylmethoxy)phenyl]-1-substituted-6-haloalkyl-uracil herbicides” (FMC Corporation, priority 1993, dated 1995).

Legend:
Soybean [1] = assay: Preemergence herbicidal activity, soybean; format: in vivo, Glycine max var. Williams; conditions: Glycine max, pre-emergence, 0.3 kg/ha, after 17-21 days, read-out: Preemergence herbicidal activity (% control), Soybean
Method: (§1) The 3-[4-(phenylmethoxy)phenyl]-1-substituted-6-haloalkyluracil herbicides of this invention were tested for pre- and postemergence herbicidal activity using a variety of crops and weeds. The test plants included soybean (Glycine max var. Williams), field corn (Zea mays var. Agway 425X), wheat (Triticum aestivum var. Wheaton), morningglory (Ipomea lacunosa or Ipomea hederacea), velvetleaf (Abutilon theophrasti), green foxtail (Setaria viridis), Johnsongrass (Sorghum halepense), blackgrass (Aloepecurus myosuroides), common chickweed (Stellaria media), and common cocklebur (Xanthium pensylvanicum).
(§2) For preemergence testing, two disposable fiber flats (8 cm×15 cm×25 cm) for each rate of application of each candidate herbicide were filled to an approximate depth of 6.5 cm with steam-sterilized sandy loam soil. The soil was leveled and impressed with a template to provide five evenly spaced furrows 13 cm long and 0.5 cm deep in each flat. Seeds of soybean, wheat, corn, green foxtail, and johnsongrass were planted in the furrows of the first flat, and seeds of velvetleaf, morningglory, common chickweed, cocklebur, and blackgrass were planted in the furrows of the second flat. The five-row template was employed to firmly press the seeds into place. A topping soil of equal portions of sand and sandy loam soil was placed uniformly on top of each flat to a depth of approximately 0.5 cm. Flats for postemergence testing were prepared in the same manner except that they were planted 8-12 days prior to the preemergence flats and were placed in a greenhouse and watered, thus allowing the seeds to germinate and the foliage to develop.
(§3) In both pre- and postemergence tests, a stock solution of the candidate herbicide was prepared by dissolving 0.27 g of the compound in 20 mL of water/acetone (50/50) containing 0.5% v/v sorbitan monolaurate. For an application rate of 3000 g/ha of herbicide a 10 mL portion of the stock solution was diluted with water/acetone (50/50) to 45 mL.
(§4) The preemergence flats were initially subjected to a light water spray. The four flats were placed two by two along a conveyor belt (i.e., the two preemergence followed by the two postemergence flats). The conveyor belt fed under a spray nozzle mounted about ten inches above the postemergent foliage. The preemergent flats were elevated on the belt so that the soil surface was at the same level below the spray nozzle as the foliage canopy of the postemergent plants. The spray of herbicidal solution was commenced and once stabilized, the flats were passed under the spray at a speed to receive a coverage equivalent of 1000 L/ha. At this coverage the application rates are those shown in the above table for the individual herbicidal solutions. The preemergence flats were watered immediately thereafter, placed in the greenhouse and watered regularly at the soil surface. The postemergence flats were immediately placed in the greenhouse and not watered until 24 hours after treatment with the test solution. Thereafter they were regularly watered at ground level. After 17-21 days the plants were examined and the phytotoxicity data were recorded.
(§5) Herbicidal activity data at selected application rates are given for various compounds of this invention in Table 2 and Table 3. The test compounds are identified by numbers which correspond to those in Table 1.
(§6) Phytotoxicity data were taken as percent control. Percent control was determined by a method similar to the 0 to 100 rating system disclosed in "Research Methods in Weed Science," 2nd ed., B. Truelove, Ed.; Southern Weed Science Society; Auburn University, Auburn, Ala., 1977.

Blackgrass [2] = assay: Postemergence herbicidal activity, blackgrass; format: in vivo, Aloepecurus myosuroides; conditions: Alopecurus myosuroides, post-emergence, 0.3 kg/ha, after 17-21 days, read-out: Postemergence herbicidal activity (% control), Blackgrass
Method: as §1, §2, §3, §4, §5, §6

Green foxtail [3] = assay: Postemergence herbicidal activity, green foxtail; format: in vivo; conditions: Setaria viridis, post-emergence, 0.3 kg/ha, after 17-21 days, read-out: Postemergence herbicidal activity (% control), Green foxtail
Method: as §1, §2, §3, §4, §5, §6

Velvetleaf [4] = assay: Preemergence herbicidal activity, velvetleaf; format: in vivo; conditions: Abutilon theophrasti, pre-emergence, 0.3 kg/ha, after 17-21 days, read-out: Preemergence herbicidal activity (% control), Velvetleaf
Method: as §1, §2, §3, §4, §5, §6

Wheat [5] = assay: Postemergence herbicidal activity, wheat; format: in vivo, Triticum aestivum var. Wheaton; conditions: Triticum aestivum, post-emergence, 0.3 kg/ha, after 17-21 days, read-out: Postemergence herbicidal activity (% control), Wheat
Method: as §1, §2, §3, §4, §5, §6

Chickweed [6] = assay: Postemergence herbicidal activity, chickweed; format: in vivo; conditions: Stellaria media, post-emergence, 0.3 kg/ha, after 17-21 days, read-out: Postemergence herbicidal activity (% control), Chickweed
Method: as §1, §2, §3, §4, §5, §6

Velvetleaf [7] = assay: Postemergence herbicidal activity, velvetleaf; format: in vivo; conditions: Abutilon theophrasti, post-emergence, 0.3 kg/ha, after 17-21 days, read-out: Postemergence herbicidal activity (% control), Velvetleaf
Method: as §1, §2, §3, §4, §5, §6

Corn [8] = assay: Preemergence herbicidal activity, corn; format: in vivo, Zea mays var. Agway 425X; conditions: Zea mays, pre-emergence, 0.3 kg/ha, after 17-21 days, read-out: Preemergence herbicidal activity (% control), Corn
Method: as §1, §2, §3, §4, §5, §6

Morningglory [9] = assay: Preemergence herbicidal activity, morningglory; format: in vivo, Ipomea lacunosa or Ipomea hederacea; conditions: Ipomoea, pre-emergence, 0.3 kg/ha, after 17-21 days, read-out: Preemergence herbicidal activity (% control), Morningglory
Method: as §1, §2, §3, §4, §5, §6

Chickweed [10] = assay: Preemergence herbicidal activity, chickweed; format: in vivo; conditions: Stellaria media, pre-emergence, 0.3 kg/ha, after 17-21 days, read-out: Preemergence herbicidal activity (% control), Chickweed
Method: as §1, §2, §3, §4, §5, §6

Cocklebur [11] = assay: Postemergence herbicidal activity, cocklebur; format: in vivo, Xanthium pensylvanicum; conditions: Xanthium strumarium, post-emergence, 0.3 kg/ha, after 17-21 days, read-out: Postemergence herbicidal activity (% control), Cocklebur
Method: as §1, §2, §3, §4, §5, §6

Corn [12] = assay: Postemergence herbicidal activity, corn; format: in vivo, Zea mays var. Agway 425X; conditions: Zea mays, post-emergence, 0.3 kg/ha, after 17-21 days, read-out: Postemergence herbicidal activity (% control), Corn
Method: as §1, §2, §3, §4, §5, §6

Blackgrass [13] = assay: Preemergence herbicidal activity, blackgrass; format: in vivo, Aloepecurus myosuroides; conditions: Alopecurus myosuroides, pre-emergence, 0.3 kg/ha, after 17-21 days, read-out: Preemergence herbicidal activity (% control), Blackgrass
Method: as §1, §2, §3, §4, §5, §6

Soybean [14] = assay: Postemergence herbicidal activity, soybean; format: in vivo, Glycine max var. Williams; conditions: Glycine max, post-emergence, 0.3 kg/ha, after 17-21 days, read-out: Postemergence herbicidal activity (% control), Soybean
Method: as §1, §2, §3, §4, §5, §6

Cocklebur [15] = assay: Preemergence herbicidal activity, cocklebur; format: in vivo, Xanthium pensylvanicum; conditions: Xanthium strumarium, pre-emergence, 0.3 kg/ha, after 17-21 days, read-out: Preemergence herbicidal activity (% control), Cocklebur
Method: as §1, §2, §3, §4, §5, §6

Green foxtail [16] = assay: Preemergence herbicidal activity, green foxtail; format: in vivo; conditions: Setaria viridis, pre-emergence, 0.3 kg/ha, after 17-21 days, read-out: Preemergence herbicidal activity (% control), Green foxtail
Method: as §1, §2, §3, §4, §5, §6

Wheat [17] = assay: Preemergence herbicidal activity, wheat; format: in vivo, Triticum aestivum var. Wheaton; conditions: Triticum aestivum, pre-emergence, 0.3 kg/ha, after 17-21 days, read-out: Preemergence herbicidal activity (% control), Wheat
Method: as §1, §2, §3, §4, §5, §6

Morningglory [18] = assay: Postemergence herbicidal activity, morningglory; format: in vivo, Ipomea lacunosa or Ipomea hederacea; conditions: Ipomoea, post-emergence, 0.3 kg/ha, after 17-21 days, read-out: Postemergence herbicidal activity (% control), Morningglory
Method: as §1, §2, §3, §4, §5, §6

Johnsongrass [19] = assay: Preemergence herbicidal activity, johnsongrass; format: in vivo; conditions: Sorghum halepense, pre-emergence, 0.3 kg/ha, after 17-21 days, read-out: Preemergence herbicidal activity (% control), Johnsongrass
Method: as §1, §2, §3, §4, §5, §6

Johnsongrass [20] = assay: Postemergence herbicidal activity, johnsongrass; format: in vivo; conditions: Sorghum halepense, post-emergence, 0.3 kg/ha, after 17-21 days, read-out: Postemergence herbicidal activity (% control), Johnsongrass
Method: as §1, §2, §3, §4, §5, §6

| SMILES | activity at 300 g/ha (Soybean [1]) [%] | activity at 300 g/ha (Blackgrass [2]) [%] | activity at 300 g/ha (Green foxtail [3]) [%] | activity at 300 g/ha (Velvetleaf [4]) [%] | activity at 300 g/ha (Wheat [5]) [%] | activity at 300 g/ha (Chickweed [6]) [%] | activity at 300 g/ha (Velvetleaf [7]) [%] | activity at 300 g/ha (Corn [8]) [%] | activity at 300 g/ha (Morningglory [9]) [%] | activity at 300 g/ha (Chickweed [10]) [%] | activity at 300 g/ha (Cocklebur [11]) [%] | activity at 300 g/ha (Corn [12]) [%] | activity at 300 g/ha (Blackgrass [13]) [%] | activity at 300 g/ha (Soybean [14]) [%] | activity at 300 g/ha (Cocklebur [15]) [%] | activity at 300 g/ha (Green foxtail [16]) [%] | activity at 300 g/ha (Wheat [17]) [%] | activity at 300 g/ha (Morningglory [18]) [%] | activity at 300 g/ha (Johnsongrass [19]) [%] | activity at 300 g/ha (Johnsongrass [20]) [%] |
| --- | --- | --- | --- | --- | --- | --- | --- | --- | --- | --- | --- | --- | --- | --- | --- | --- | --- | --- | --- | --- |
| Cn1c(C(F)(F)F)cc(=O)n(-c2ccc(OCc3ccc(F)cc3)cc2)c1=O [Compound 5] | 60 | 30 | 90 | 100 | 0 | 100 | 100 | 50 | 100 | 100 | 100 | 75 | 20 | 90 | 40 | 100 | 20 | 100 | 90 | 75 |
| Cn1c(C(F)(F)F)cc(=O)n(-c2ccc(OCc3cc(Cl)cc(Cl)c3)cc2)c1=O [Compound 43] | 0 | 0 | 0 | 0 | 0 | 0 | 0 | 0 | 0 | 0 | 0 | 30 | 0 | 10 | 0 | 0 | 0 | 10 | 0 | 30 |
| COc1cccc(COc2ccc(-n3c(=O)cc(C(F)(F)F)n(C)c3=O)cc2)c1 [Compound 8] | 10 | 10 | 100 | 100 | 10 | 100 | 100 | 35 | 65 | 90 | 100 | 85 | 10 | 85 | 0 | 100 | 15 | 100 | 80 | 100 |
| Cn1c(C(F)(F)F)cc(=O)n(-c2ccc(OCc3ccc(Cl)cc3)cc2)c1=O [Compound 4, 3-[4-(4-Chlorophenylmethoxy)phenyl]-1-methyl-6-trifluoromethyluracil] | 60 | 0 | 80 | 100 | 0 | 100 | 95 | 30 | 90 | 100 | 100 | 50 | 50 | 95 | 30 | 100 | 10 | 100 | 95 | 0 |
| Cn1c(C(F)(F)F)cc(=O)n(-c2ccc(OCc3cccc(Cl)c3)cc2)c1=O [Compound 3] | 10 | 0 | 95 | 80 | 10 | 70 | 100 | 10 | 10 | 0 | 100 | 60 | 0 | 45 | 0 | 95 | 0 | 90 | 20 | 90 |
